Tests used:
HHV-1 = test: Confocal microscopy, direct immunofluorescence staining of infected HaCaT cells; assay type: cell-based, Human herpesvirus 1; details: acyclovir added to infected HaCaT; 48 hrs after infection; FIG. 19
Excerpt: Confocal microscopy (microscope magnification—60×, digital zoom) was used to view the cell structure status and positioning 48 hrs after infection with HHV-1 (FIG. 18). The method of direct immunofluorescence staining wherein the nucleus—blue (A), viral antigen —green (B), actin—red (C), nucleus/actin (D) helps further understand the structural changes in the cells. The same confocal microscopy technique was used to view the cell structure status and positioning after HHV-1 infection and treatment with Kalanchoe daigremontiana. As before the method of direct immunofluorescence staining is nucleus—blue (A), viral antigen—green (B), actin—red (C), nucleus/actin (D).

[1] = test system: HaCaT cell line infected with HHV-1; test: Vitality VB-48 Assay, HHV-1 infected cells; assay type: cell-based, human; details: Control + acyclovir, mean
Method: Vitality VB-48 Assay (NucleoCounter NC-3000) was used to determine the percentage estimation of keratinocytes of varied degrees of viability after 24 h incubation with Kalanchoe daigremontiana extract.
An HHV-1 suspension was added to HaCaT cell line and incubated for 1 hour to enable adsorption of virus to cells. Afterwards, the cells were incubated with a plant extract of the respective dilution for 24 hrs to assess the viability of the keratinocytes with HHV-1 incubated with the respective dilutions of the extract of the invention as compared with Acyclovir.

[2] = test system: HaCaT cell line infected with HHV-1; test: Cell Count Assay (NucleoCounter NC-3000), HHV-1 infected cells; assay type: cell-based, human; details: Control + acyclovir, HHV-1 infected HaCaT
Method: Next, cell viability additionally in the presence of the Herpes virus was investigated with a Cell Count Assay (NucleoCounter NC-3000). An HHV-1 suspension was added to HaCaT cell line and incubated for 1 hour to enable adsorption of virus to cells; the cells were then incubated with the extract, in the respective dilution ratios, for 24 hrs.

## Nc1nc2c(ncn2COCCO)c(=O)[nH]1 [acyclovir]
HHV-1
  amount of viral antigen: lower amount of viral antigen
[1]
  dead cells %: 77.1%
  healthy cells %: 3.27%
  lower viability cells %: 19.51%
[2]
  All cells Cell %: 79.67%
  All cells Mean intensity: 160070.3
  All cells Number of cells: 7648
  Dead cells Cell %: 24.05%
  Dead cells Mean intensity: 152872.9
  Dead cells Number of cells: 5683
  Viability [%]: 25.7%
[2]; listed as Acyclovir
  Viability [%]: 25%

Source: patent US20200276256A1, “SKIN CARE COMPOSITION” (ISN Pharma SP.Z.O.O., priority 2017, published 2020)
